Patent US20260148853A1, “UQCC2-BASED COMPUTER-ASSISTED METHOD, SYSTEM, AND DEVICE FOR DIAGNOSING OSIMERTINIB-RESISTANT LUNG CANCER, PREDICTING DRUG THERAPEUTIC EFFECTS, AND SCREENING DRUGS TARGETED FOR OSIMERTINIB-RESISTANT LUNG CANCER” (THE SECOND HOSPITAL OF DALIAN MEDICAL UNIVERSITY, priority 2024, published 2026)
d = 2'-deoxy (DNA)

Experiments:
Format in all cases: cell-based
UQCC2 [1] = assay: western blot of UQCC2 protein expression in NCI-H1975/OR cells treated with Ctrl, Osim or Lomi; settings: NCI-H1975/OR cells (osimertinib-resistant), lomitapide alone vs Osim and Ctrl, FIG. 9
Protocol: In a specific embodiment, the protein expression levels of UQCC2 in the NCI-H1975 cells and the NCI-H1975/OR cells (Ctrl) were determined by western blot assay, or the like. The NCI-H1975/OR cells (Ctrl) were osimertinib-resistant cells. The western blot assay used anti-UQCC2 (antibody dilution ratio of 1:1000, Proteintech, #25781-1-AP). Anti-GAPDH (antibody dilution ratio of 1:50,000, Proteintech, #60004-1-Ig) was used as a loading control. Significance (denoted as P) was determined using GraphPad Prism software, etc. All statistical analyses were performed using data from at least three independent experiments. […] “*” refers to a marker sign of significance.
In a specific embodiment, the protein expression of UQCC2 in the NCI-H1975/OR cells (treated with Ctrl, Osim, or Lomi alone) was determined by western blot assay. The western blot assay was performed using the following antibody: anti-UQCC2 (antibody dilution ratio of 1:1000, Proteintech, #25781-1-AP). Anti-GAPDH (antibody dilution ratio of 1:50,000, Proteintech, #60004-1-Ig) was used as a loading control. Significance was calculated using GraphPad Prism software, etc.

UQCC2 [2] = assay: western blot of UQCC2 after siRNA knockdown of METTL3 in H1975/OR cells; settings: FIG. 11B
Text: (§1) In one embodiment, the correlation between METTL3 and UQCC2 expression was investigated by western blot assay after knockdown of the gene expression of METTL3 or UQCC2 in H1975/OR cells through small interfering RNA (siRNA), etc. The knockdown may be a partial reduction in the expression level of a specific gene.
(§2) siMETTL3 (5′-3′) (siRNA for METTL3 gene knockdown): sense strand GCACUUGGAUCUACGGAAU(dT)(dT); antisense strand AUUCCGUAGAUCC AAGUGC(dT)(dT); siUQCC2 (5′-3′) (siRNA for UQCC2 gene knockdown): sense strand: […], antisense strand: […].
(§3) In some embodiments, the western blot assay was performed using the following antibodies: anti-METTL 3 (antibody dilution ratio of 1:2000; #15073-1-AP; Proteintech) and anti-UQCC2 (antibody dilution ratio of 1:1000, Proteintech, #25781-1-AP). Anti-GAPDH (antibody dilution ratio 1:50,000, Proteintech, #60004-1-Ig) was used as a loading control. Significance was calculated using GraphPad Prism software, etc.

METTL3 = assay: western blot of METTL3 after siRNA knockdown of UQCC2 in H1975/OR cells; settings: FIG. 11C
Text: as §1, §2, §3

autophagosome marker LC3 = assay: immunofluorescence assay of LC3 after UQCC2 knockdown in H1975/OR cells; settings: FIG. 12
Protocol: In one embodiment, the expression of the autophagosome marker LC3 was analyzed by the immunofluorescence assay after the UQCC2 knockdown in H1975/OR cells. siUQCC2 (5′-3′): sense strand: […]; antisense strand: […].
In some embodiments, the H 1975/OR cells may be fixed with 4% formaldehyde, permeabilized with 0.2% Triton X-100, and blocked with 5% bovine serum albumin. The cells were then incubated with the indicated antibodies at 4° C. overnight and stained with fluorescently coupled secondary antibodies and DAPI solution. The H1975/OR cells were photographed under a fluorescence microscope (Leica DM6B Thunder). Anti-LC3 (antibody dilution ratio of 1:100; antibody used was Proteintech, No. 81004-1-RR).

[3] = test system: autophagosome markers LC3 and p62; assay: western blot of autophagosome markers after UQCC2 knockdown in H1975/OR cells; settings: FIG. 11
Protocol: In a specific embodiment, the impact of UQCC2 knockdown in H1975/OR cells on the expression of the autophagosome markers LC3 and p62 was investigated by western blot assay. siUQCC2 (5′-3′): sense strand: […]; antisense strand: […].
In some embodiments, the western blot assay was performed using the following antibodies: anti-UQCC 2 (antibody dilution ratio of 1:1000, Proteintech, #25781-1-AP), anti-LC3 (antibody dilution ratio of 1:2000; #81004-1-RR; Proteintech), and anti-p 62 (antibody dilution ratio of 1:5000; #80294-1-RR; Proteintech). Anti-GAPDH (Antibody dilution ratio 1:50,000, Proteintech, #60004-1-Ig) was used as a loading control. Significance was calculated using GraphPad Prism software, etc.

Compound: O=C(NC1CCN(CCCCC2(C(=O)NCC(F)(F)F)c3ccccc3-c3ccccc32)CC1)c1ccccc1-c1ccc(C(F)(F)F)cc1 [lomitapide]
- protein expression of UQCC2 (UQCC2 [1]): significantly reduced

Compound: siMETTL3: siRNA for METTL3 gene knockdown; sense strand GCACUUGGAUCUACGGAAU(dT)(dT) (antisense AUUCCGUAGAUCCAAGUGC; sense: 3' dTdT, sugars by position and backbone not given here; antisense: chemistry not given here)
- expression of UQCC2 (UQCC2 [2]): downregulates

Compound: siUQCC2: siRNA for UQCC2 gene knockdown; sense strand GACUCCAUUCAAACUACUATT, antisense strand UAGUAGUUUUGAAUGGAGUCTT (chemistry not fully specified)
- expression of METTL3 (METTL3): does not affect
- autophagy (autophagosome marker LC3): significantly activated
- expression of autophagosome marker LC3 (autophagosome marker LC3): up-regulation
- autophagy [3]: significantly activated
- expression of autophagosome marker LC3 [3]: upregulation
- expression of autophagosome marker p62 [3]: upregulation
